# In EP4799701A2, “PYRIMID-2-YL-PYRAZOLE COMPOUNDS AS IRAK INHIBITORS” (Rigel Pharmaceuticals, Inc., priority 2022, dated 2023):
# How the values were obtained:
# TLR4-dependent = TLR4-dependent cytokine production in mouse macrophages; assay type: cell-based; settings: result in words
# [1] = tested on: TLR4-induced IL-23 and TNF-α; test: TLR4 induced TNF-α in THP-1 cells; assay type: cell-based; settings: human THP-1 cells; result in words
# Description: Assay Protocol: TLR4 and TLR2 induced cytokines in THP-1 cells. […]
# THP-1 cells (100K in 100 µL/well) were primed with 25 ng/mL IFN-γ for 18 hours at 37°C, 5% CO2. […] IL-23p 19 or TNF-α protein in the supernatant were measured by sandwich ELISA. […] The plates were read with a luminometer, and the chemiluminescence values were entered into Athena (Rigel) for curve fitting, EC50 calculation, and database storage.
# [2] = Plasma protein binding, free drug comparison across species; assay type: in vitro ADME; settings: free drug in rat, dog, monkey and human proteins
# Description: Brain and plasma drug binding were performed by equilibrium dialysis using the Rapid Equilibrium Dialysis (RED) device. Briefly, 300 µL of plasma or brain homogenate (1 brain /3 buffer) containing drug (5 µM) was equilibrated (4-18 h) against 500 µL of buffered saline. After incubation, the concentration of drug in plasma/brain homogenate and buffer was determined by LC-MS/MS.
# Higher free drug in plasma and brain allow for more drug to interact with the target. [drawing 34]
# From a free drug perspective compound I-1 was approximately 6-times more free than Comparision-1 in rat, dog, monkey and human proteins.
compound,measurement,setting,value
"CCO[C@H]1CC[C@H](n2cc(NC(=O)c3csc(-c4cn[nH]c4)n3)c(-c3ncccn3)n2)CC1 [Compound I-1, N-(1-((1r,4r)-4-ethoxycyclohexyl)-3-(pyrimidin-2-yl)-1H-pyrazol-4-yl)-2-(1H-pyrazol-4-yl)thiazole-4-carboxamide]",TLR4-dependent cytokine production,TLR4-dependent,potent inhibitor
same,TLR4-induced TNF-α production,[1],inhibits
same,more free than Comparision-1,[2],approximately 6 times
